According to PMC10999543, “Identification of kinase modulators as host-directed therapeutics against intracellular methicillin-resistant Staphylococcus aureus” (Frontiers in Cellular and Infection Microbiology, 2024):
Where two headings read alike, the source gives them in different places.

Columns and labels:
HeLa cells = assay: Compound screen by flow cytometry: HeLa cell count as surrogate readout of cell viability (z-scoreHeLa); assay type: cell-based, human; conditions: for cell count rep 1 / z-scoreHeLa rep 1: replicate 1; for cell count rep 2 / z-scoreHeLa rep 2: replicate 2; for cell count rep 3 / z-scoreHeLa rep 3: replicate 3; for z-scoreHeLa mean: mean of 3 replicates
Method: (§1) The cells were resuspended in cell culture medium without antibiotics, seeded with 10,000 cells/well into Costar flat-bottom 96-well plates (Corning, Amsterdam, the Netherlands), and were incubated overnight at 37°C/5% CO2. The next day, the bacteria were centrifuged at ≥1800 g for 15 min and resuspended in cold PBS + 5 mM ethylenediaminetetraacetic acid (EDTA). The number of CFUs present in the bacterial suspension was estimated from the optical density at 600 nm (OD600) by assuming 8x10^8 CFUs to be present in a bacterial suspension with OD600 = 1, based on prior titrations. The bacterial suspension was diluted in cell culture medium without antibiotics and added to the cells. Accuracy of the multiplicity of infection (MOI) was validated by plating serial dilutions of the MRSA inoculums on Difco TS agar plates (BD Biosciences). The calculated mean MOI throughout all experiments was 6.8 ± 4.6 (mean ± SD). Infected cells were centrifuged for 3 min at 150 g and incubated for 1 hour at 37°C/5% CO2. Next, the cells were incubated with fresh cell culture medium supplemented with 30 µg/ml gentamicin sulphate (Lonza BioWhittaker, Basel, Switzerland) for 15 min at 37°C/5% CO2 to kill residual extracellular bacteria. Infected cells were incubated overnight at 37°C/5% CO2 in cell culture medium in the presence of kinase inhibitors and 5 µg/ml gentamicin sulphate-containing medium to prevent the growth of extracellular bacteria. The solvent of the compounds, DMSO, was used at equal % v/v as a negative control. For the screen, each compound was tested in triplicate, on separate cell culture plates, resulting in triplicate values for each kinase inhibitor.
(§2) HeLa cells were harvested by trypsinization and fixed with 1% paraformaldehyde. Samples were measured on a FACSLyric with HTS extension (BD Biosciences). Flow cytometry data were analysed using FlowJo version 10 (TreeStar, Ashland, OR, USA). HeLa cells positive for GFP were gated to calculate the percentage of MRSA-infected cells. The cell count was used as surrogate readout of cell viability.
To minimize the possibility that the presence of extreme values on a plate affected the z-scores, raw values that deviated two-fold from the negative controls were excluded when calculating plate means and standard deviations as used in the aforementioned formula. Compounds were considered a “hit” when z-scoreMRSA+ ≤ -2 and z-scoreHeLa ≥ -3 for cell count. In cases where compounds were screened twice, the average values were used to select hit compounds.

intracellular MRSA = assay type: cell-based, Staphylococcus aureus; conditions: for %GFP+ rep 1 / z-scoreMRSA+ rep 1: replicate 1; for %GFP+ rep 2 / z-scoreMRSA+ rep 2: replicate 2; for %GFP+ rep 3 / z-scoreMRSA+ rep 3: replicate 3; for z-scoreMRSA+ mean: mean of 3 replicates
Method: as §1, §2
To identify potential “hit” compounds, the flow cytometry data were used to calculate standard z-scores using z = (x-μ)/σ – zneg, where x is total event count or the percent of GFP-positive cells from a single well, μ is the mean from wells of the plate, σ is the standard deviation of the plate and zneg is the mean z-score of the negative control of the plate (i.e., DMSO) ([Korbee et al., 2018]). To minimize the possibility that the presence of extreme values on a plate affected the z-scores, raw values that deviated two-fold from the negative controls were excluded when calculating plate means and standard deviations as used in the aforementioned formula. Compounds were considered a “hit” when z-scoreMRSA+ ≤ -2 and z-scoreHeLa ≥ -3 for cell count. In cases where compounds were screened twice, the average values were used to select hit compounds.

[1] = PKIS compound screen raw data, HeLa cell count
[2] = PKIS compound screen, HeLa cell count
[3] = PKIS compound screen, Yes/No call
[4] = PKIS compound screen, Yes/No call on z-scoreHeLa
[5] = PKIS compounds raw data, HeLa cell count
[6] = PKIS compound screen raw data, MRSA-infected HeLa cells
[7] = PKIS compound screen, MRSA-infected HeLa cells
[8] = PKIS compound screen, Yes/No call (effect without cell death)
[9] = PKIS compound screen, Yes/No call on z-scoreMRSA+
[10] = PKIS compounds raw data, MRSA-infected HeLa cells
[11] = compound screen, HeLa cell count
[12] = Yes/No: effect without cell death
[13] = compound screen, MRSA-infected HeLa cells

Row | Structure (SMILES) | cell count rep 1 (HeLa cells; [1]) | cell count rep 2 (HeLa cells; [1]) | cell count rep 3 (HeLa cells; [1]) | z-scoreHeLa mean (HeLa cells; [2]) | z-scoreHeLa rep 1 (HeLa cells; [2]) | z-scoreHeLa rep 2 (HeLa cells; [2]) | z-scoreHeLa rep 3 (HeLa cells; [2]) | cell death (HeLa cells; [4]) | cell count rep 1 (HeLa cells; [5]) | cell count rep 2 (HeLa cells; [5]) | cell count rep 3 (HeLa cells; [5]) | %GFP+ rep 1 (intracellular MRSA; [6]) | %GFP+ rep 2 (intracellular MRSA; [6]) | %GFP+ rep 3 (intracellular MRSA; [6]) | z-scoreMRSA+ mean (intracellular MRSA; [7]) | z-scoreMRSA+ rep 1 (intracellular MRSA; [7]) | z-scoreMRSA+ rep 2 (intracellular MRSA; [7]) | z-scoreMRSA+ rep 3 (intracellular MRSA; [7]) | hit (intracellular MRSA; [8]) | effect (intracellular MRSA; [9]) | also measured
1 | Nc1ncc(-c2cccnc2)c2scc(-c3ccc4c(c3)CCN4C(=O)Cc3ccccc3)c12 [GSK683281A] | 22126 | 22399 | 35639 | -0.93 | 0.30 | -2.31 | -0.78 | No | 6640 | 6026 | 5637 | 18.3% | 19.8% | 19.8% | 0.18 | 0.14 | 0.38 | 0.00377 | No | No | cell death (HeLa cells; [3]): No; z-scoreHeLa mean (HeLa cells; PKIS compound screen): 0.13; z-scoreHeLa rep 1 (HeLa cells; PKIS compound screen): 0.36; z-scoreHeLa rep 2 (HeLa cells; PKIS compound screen): 0.0122; z-scoreHeLa rep 3 (HeLa cells; PKIS compound screen): 0.0253; effect (intracellular MRSA; [3]): No; z-scoreMRSA+ mean (intracellular MRSA; PKIS compound screen): 0.38; z-scoreMRSA+ rep 1 (intracellular MRSA; PKIS compound screen): 0.20; z-scoreMRSA+ rep 2 (intracellular MRSA; PKIS compound screen): 0.70; z-scoreMRSA+ rep 3 (intracellular MRSA; PKIS compound screen): 0.25; %GFP+ rep 1 (intracellular MRSA; [10]): 28.1%; %GFP+ rep 2 (intracellular MRSA; [10]): 29.7%; %GFP+ rep 3 (intracellular MRSA; [10]): 28.6%
2 | CCn1cc(-c2ccnc3[nH]ccc23)c(-c2cccc(NC(=O)Nc3ccc(OCc4ccccc4)cc3)c2)n1 [GSK718429A] |  |  |  |  |  |  |  |  | 2721 | 2140 | 4945 |  |  |  |  |  |  |  |  |  | cell death (HeLa cells; Yes/No call from z-scoreHeLa): No; z-scoreHeLa mean (HeLa cells; [11]): -1.48; z-scoreHeLa rep 1 (HeLa cells; [11]): -1.86; z-scoreHeLa rep 2 (HeLa cells; [11]): -1.61; z-scoreHeLa rep 3 (HeLa cells; [11]): -0.96; %GFP+ rep 1 (intracellular MRSA; [10]): 12.6%; %GFP+ rep 2 (intracellular MRSA; [10]): 13.0%; %GFP+ rep 3 (intracellular MRSA; [10]): 13.2%; effect (intracellular MRSA; Yes/No call from z-scoreMRSA+): No; hit (intracellular MRSA; [12]): No; z-scoreMRSA+ mean (intracellular MRSA; [13]): -0.38; z-scoreMRSA+ rep 1 (intracellular MRSA; [13]): -0.18; z-scoreMRSA+ rep 2 (intracellular MRSA; [13]): -0.17; z-scoreMRSA+ rep 3 (intracellular MRSA; [13]): -0.79
3 | CCn1c(-c2nonc2N)nc2c(C#CC(C)(C)O)nc(OC[C@@H](N)c3ccccc3)cc21 [GSK938890A] | 14299 | 35410 | 42196 | -0.17 | -0.88 | 0.12 | 0.27 | No |  |  |  | 12.8% | 14.8% | 15.1% | -1.38 | -1.60 | -1.12 | -1.43 | No | No | 
4 | CCn1c(-c2nonc2N)nc2c(C#CC(C)(C)O)nc(OC[C@H](N)c3ccccc3)cc21 [GSK943949A] | 779 | 847 | 431 |  |  |  |  |  |  |  |  | 19.2% | 16.3% | 15.7% |  |  |  |  |  |  | cell death (HeLa cells; Yes/No call from z-scoreHeLa): No; z-scoreHeLa mean (HeLa cells; [11]): -2.76; z-scoreHeLa rep 1 (HeLa cells; [11]): -2.58; z-scoreHeLa rep 2 (HeLa cells; [11]): -2.66; z-scoreHeLa rep 3 (HeLa cells; [11]): -3.04; effect (intracellular MRSA; Yes/No call from z-scoreMRSA+): No; hit (intracellular MRSA; [12]): No; z-scoreMRSA+ mean (intracellular MRSA; [13]): -1.63; z-scoreMRSA+ rep 1 (intracellular MRSA; [13]): -1.42; z-scoreMRSA+ rep 2 (intracellular MRSA; [13]): -1.53; z-scoreMRSA+ rep 3 (intracellular MRSA; [13]): -1.95
5 | CCn1c(-c2nonc2N)nc2c(C#CC(C)(C)O)nc(OCCNC)cc21 [GSK949675A] |  |  |  |  |  |  |  |  | 4918 | 5879 | 10520 |  |  |  |  |  |  |  | No |  | cell death (HeLa cells; [3]): No; z-scoreHeLa mean (HeLa cells; PKIS compound screen): 1.02; z-scoreHeLa rep 1 (HeLa cells; PKIS compound screen): 0.13; z-scoreHeLa rep 2 (HeLa cells; PKIS compound screen): 1.22; z-scoreHeLa rep 3 (HeLa cells; PKIS compound screen): 1.70; effect (intracellular MRSA; [3]): No; z-scoreMRSA+ mean (intracellular MRSA; PKIS compound screen): 0.28; z-scoreMRSA+ rep 1 (intracellular MRSA; PKIS compound screen): 0.59; z-scoreMRSA+ rep 2 (intracellular MRSA; PKIS compound screen): 0.84; z-scoreMRSA+ rep 3 (intracellular MRSA; PKIS compound screen): -0.59; %GFP+ rep 1 (intracellular MRSA; [10]): 15.0%; %GFP+ rep 2 (intracellular MRSA; [10]): 16.0%; %GFP+ rep 3 (intracellular MRSA; [10]): 13.9%
6 | NS(=O)(=O)c1cccc(-c2cc3ccncc3cc2OCc2ccccc2)c1 [GSK980961A] | 14876 | 28602 | 41262 | -0.61 | -0.80 | -1.15 | 0.12 | No |  |  |  | 13.7% | 14.8% | 15.5% | -1.25 | -1.32 | -1.12 | -1.31 | No | No | 
7 | COc1cc2ncn(-c3cc(OCc4ccccc4C(F)(F)F)c(C(=O)N(C)C)s3)c2cc1OC [GSK1030062A] | 10049 | 31389 | 32107 | -1.17 | -1.53 | -0.63 | -1.34 | No |  |  |  | 17.3% | 19.4% | 19.3% | -0.02 | -0.18 | 0.26 | -0.15 | No | No | 
8 | c1ccc(-c2cc3ccncc3cc2OC2CCNCC2)cc1 [GSK1122999D] | 28278 | 18056 | 22119 | -0.31 | -0.33 | -1.24 | 0.62 | No | 8742 | 6353 | 6306 | 16.9% | 18.4% | 20.9% | -0.29 | -0.50 | -0.28 | -0.09 | No | No | cell death (HeLa cells; [3]): No; z-scoreHeLa mean (HeLa cells; PKIS compound screen): 0.77; z-scoreHeLa rep 1 (HeLa cells; PKIS compound screen): 1.62; z-scoreHeLa rep 2 (HeLa cells; PKIS compound screen): 0.23; z-scoreHeLa rep 3 (HeLa cells; PKIS compound screen): 0.45; effect (intracellular MRSA; [3]): No; z-scoreMRSA+ mean (intracellular MRSA; PKIS compound screen): 0.55; z-scoreMRSA+ rep 1 (intracellular MRSA; PKIS compound screen): 0.42; z-scoreMRSA+ rep 2 (intracellular MRSA; PKIS compound screen): 0.40; z-scoreMRSA+ rep 3 (intracellular MRSA; PKIS compound screen): 0.84; %GFP+ rep 1 (intracellular MRSA; [10]): 29.2%; %GFP+ rep 2 (intracellular MRSA; [10]): 28.1%; %GFP+ rep 3 (intracellular MRSA; [10]): 31.8%
